Patent US20120029190A1, “COMPOUNDS FOR TREATING DISORDERS MEDIATED BY METABOTROPIC GLUTAMATE RECEPTOR 5, AND METHODS OF USE THEREOF” (priority 2009, published 2012)
Where two headings read alike, the source gives them in different places.

Target: T1, human recombinant mGluR5 receptor (Homo sapiens, UniProt P41594)
T1 construct: expressed in transfected cells; expression induced with doxycycline
Assay: mGluR5 in vitro functional assay (aequorin cell line, inhibition of glutamate EC80 response)
Type: cell-based
Conditions: aequorin cell line expressing human mGluR5, reference agonist glutamate at EC80, obtained in duplicate, read-out: IC50
How it was run: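 Doxycycline-induced (600 ng/mL, 18 h) aequorin cells loaded with coelenterazine h ≥4 h at room temperature; compound preincubated 3 min before glutamate at EC80. Luminescence recorded, normalized to digitonin or 20 mM ATP wells; % inhibition of EC80 response fitted by sigmoidal nonlinear regression.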

T1 sequence (P41594 21-1212): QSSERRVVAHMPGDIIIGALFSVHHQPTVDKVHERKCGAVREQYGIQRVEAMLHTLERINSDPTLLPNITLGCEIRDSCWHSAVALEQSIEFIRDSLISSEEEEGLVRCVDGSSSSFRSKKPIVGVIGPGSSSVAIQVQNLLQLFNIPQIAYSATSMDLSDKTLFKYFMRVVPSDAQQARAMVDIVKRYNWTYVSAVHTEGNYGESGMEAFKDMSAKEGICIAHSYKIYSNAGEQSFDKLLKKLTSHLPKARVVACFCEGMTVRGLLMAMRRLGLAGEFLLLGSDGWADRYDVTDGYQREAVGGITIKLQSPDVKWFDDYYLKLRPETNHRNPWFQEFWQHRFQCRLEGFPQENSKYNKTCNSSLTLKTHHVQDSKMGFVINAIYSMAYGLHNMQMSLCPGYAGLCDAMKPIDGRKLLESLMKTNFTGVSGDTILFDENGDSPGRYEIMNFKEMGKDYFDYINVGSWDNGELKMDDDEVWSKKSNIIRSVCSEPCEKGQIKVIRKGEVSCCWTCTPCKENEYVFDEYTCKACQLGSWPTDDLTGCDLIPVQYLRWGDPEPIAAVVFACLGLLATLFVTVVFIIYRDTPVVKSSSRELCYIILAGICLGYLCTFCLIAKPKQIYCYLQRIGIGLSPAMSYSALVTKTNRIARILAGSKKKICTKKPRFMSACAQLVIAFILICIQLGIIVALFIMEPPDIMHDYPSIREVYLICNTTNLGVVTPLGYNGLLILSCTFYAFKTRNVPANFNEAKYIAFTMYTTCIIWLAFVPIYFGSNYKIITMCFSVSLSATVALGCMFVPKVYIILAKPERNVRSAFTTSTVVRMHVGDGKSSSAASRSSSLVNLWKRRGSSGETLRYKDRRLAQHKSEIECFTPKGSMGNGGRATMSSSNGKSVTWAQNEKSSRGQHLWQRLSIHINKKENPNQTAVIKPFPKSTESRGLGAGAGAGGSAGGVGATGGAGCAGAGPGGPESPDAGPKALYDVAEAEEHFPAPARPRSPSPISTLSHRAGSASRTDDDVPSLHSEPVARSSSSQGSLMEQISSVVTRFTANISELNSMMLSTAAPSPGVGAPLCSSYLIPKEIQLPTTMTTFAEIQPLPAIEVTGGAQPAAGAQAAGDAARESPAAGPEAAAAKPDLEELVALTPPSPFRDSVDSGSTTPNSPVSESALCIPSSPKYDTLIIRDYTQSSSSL

SMILES	IC50 (Table 1)	IC50 (Table 2)
N#Cc1cc(F)cc(N2CCc3oc(-c4ccc(F)cn4)nc3C2)c1 [Compound 33, 3-Fluoro-5-(2-(5-fluoropyridin-2-yl)-6,7-dihydrooxazolo[4,5-c]pyridin-5(4H)-yl)benzonitrile]	< 1000 nM	–
Clc1cccc(-c2nc3c(o2)CCN(c2cnccn2)C3)c1 [Compound 41, 2-(3-Chlorophenyl)-5-(pyrazin-2-yl)-4,5,6,7-tetrahydrooxazolo[4,5-c]pyridine]	< 1000 nM	–
Fc1cc(F)cc(N2CCc3oc(-c4ccccn4)nc3C2)c1 [Compound 31, 5-(3,5-Difluorophenyl)-2-(pyridin-2-yl)-4,5,6,7-tetrahydrooxazolo[4,5-c]pyridine]	< 1000 nM	–
N#Cc1ccnc(N2CCc3nc(-c4ccccn4)oc3C2)c1 [Compound 7, 2-(2-(Pyridin-2-yl)-6,7-dihydrooxazolo[5,4-c]pyridin-5(4H)-yl)isonicotinonitrile]	< 10000 nM	–
N#Cc1cccc(-c2nc3c(o2)CCN(c2cccc(C#N)c2)C3)c1 [Compound 64, 3,3′-(6,7-Dihydrooxazolo[4,5-c]pyridine-2,5(4H)-diyl)dibenzonitrile]	< 1000 nM	–
Clc1cccc(N2CCCc3oc(-c4ccccn4)nc3C2)c1 [Compound 102, 5-(3-Chlorophenyl)-2-(pyridin-2-yl)-5,6,7,8-tetrahydro-4H-oxazolo[4,5-c]azepine]	< 1000 nM	–
Cc1ccc(-c2nc3c(o2)CN(c2cccc(C#N)c2)CC3)nc1 [Compound 74, 3-(2-(5-Methylpyridin-2-yl)-6,7-dihydrooxazolo[5,4-c]pyridin-5(4H)-yl)benzonitrile]	< 10000 nM	–
COc1cccc(N2CCCc3oc(-c4ccccn4)nc3C2)n1 [Compound 103, 5-(6-Methoxypyridin-2-yl)-2-(pyridin-2-yl)-5,6,7,8-tetrahydro-4H-oxazolo[4,5-c]azepine]	< 1000 nM	–
N#Cc1cccc(N2CCCc3nc(-c4ccc(F)cn4)oc3C2)c1 [Compound 97, 3-(2-(5-Fluoropyridin-2-yl)-7,8-dihydro-4H-oxazolo[5,4-c]azepin-5(6H)-yl)benzonitrile]	< 1000 nM	–
Clc1cccc(-c2nc3c(o2)CCN(c2cccnc2)C3)c1 [Compound 51, 2-(3-Chlorophenyl)-5-(pyridin-3-yl)-4,5,6,7-tetrahydrooxazolo[4,5-c]pyridine]	< 1000 nM	–
Cc1cccc(-c2nc3c(o2)CCN(c2ccccn2)C3)c1 [Compound 60, 5-(Pyridin-2-yl)-2-m-tolyl-4,5,6,7-tetrahydrooxazolo-[4,5-c]pyridine]	< 1000 nM	–
Cc1cc(-c2nc3c(o2)CCN(c2ccccn2)C3)on1 [Compound 79, 2-(3-Methylisoxazol-5-yl)-5-(pyridin-2-yl)-4,5,6,7-tetrahydrooxazolo[4,5-c]pyridine]	> 10000 nM	–
N#Cc1cccc(N2CCc3oc(-c4ccccn4)nc3C2)n1 [Compound 29, 6-(2-(Pyridin-2-yl)-6,7-dihydrooxazolo[4,5-c]pyridin-5(4H)-yl)picolinonitrile]	< 1000 nM	–
N#Cc1cc(F)cc(N2CCCc3nc(-c4ccccn4)oc3C2)c1 [Compound 90, 3-Fluoro-5-(2-(pyridin-2-yl)-7,8-dihydro-4H-oxazolo[5,4-c]azepin-5(6H)-yl)benzonitrile]	< 1000 nM	–
N#Cc1cc(F)cc(CN2CCc3oc(-c4ccccn4)nc3C2)c1 [Compound 35, 3-Fluoro-5-((2-(pyridin-2-yl)-6,7-dihydrooxazolo-[4,5-c]pyridin-5(4H)-yl)methyl)benzonitrile]	< 10000 nM	–
Cc1ccnc(-c2nc3c(o2)CN(c2cccc(C#N)c2)CC3)c1 [Compound 76, 3-(2-(4-Methylpyridin-2-yl)-6,7-dihydrooxazolo[5,4-c]pyridin-5(4H)-yl)benzonitrile]	< 10000 nM	–
N#Cc1cc(N2CCc3oc(-c4ccccn4)nc3C2)ccn1 [Compound 26, 4-(2-(Pyridin-2-yl)-6,7-dihydrooxazolo[4,5-c]pyridin-5(4H)-yl)picolinonitrile]	< 1000 nM	–
N#Cc1cccnc1N1CCc2oc(-c3ccccc3)nc2C1 [Compound 37, 2-(2-Phenyl-6,7-dihydrooxazolo[4,5-c]pyridin-5(4H)-yl)nicotinonitrile]	< 10000 nM	–
N#Cc1cccc(N2CCc3nc(-c4ccccn4)oc3CC2)c1 [Compound 88, 3-(2-(Pyridin-2-yl)-7,8-dihydro-4H-oxazolo[5,4-d]azepin-6(5H)-yl)benzonitrile]	< 1000 nM	–
Clc1cccc(-c2nc3c(o2)CCN(c2ccccn2)C3)c1 [Compound 40, 2-(3-Chlorophenyl)-5-(pyridin-2-yl)-4,5,6,7-tetrahydrooxazolo[4,5-c]pyridine]	< 1000 nM	–

Other lines, results leading:

IC50 (Table 1)	IC50 (Table 2)	SMILES
–	< 1000 nM	Cc1nc(N2CCc3oc(-c4ccccn4)nc3C2)cs1 [Compound 163, 5-(2-Methylthiazol-4-yl)-2-(pyridin-2-yl)-4,5,6,7-tetrahydrooxazolo[4,5-c]pyridine]
–	< 1000 nM	Clc1cccc(N2CCCc3oc(-c4ccncn4)nc3C2)c1 [Compound 137, 5-(3-chlorophenyl)-2-(pyrimidin-4-yl)-5,6,7,8-tetrahydro-4H-oxazolo[4,5-c]azepine]
–	< 10000 nM	N#Cc1cc(N2CCCc3oc(-c4ccccn4)nc3C2)cc(F)c1O [Compound 218, 3-Fluoro-2-hydroxy-5-(2-(pyridin-2-yl)-7,8-dihydro-4H-oxazolo[4,5-c]azepin-5(6H)-yl)benzonitrile]
–	> 10000 nM	Cc1cccnc1-c1nc2c(o1)CCN(c1cccc(Cl)c1)C2 [Compound 123, 5-(3-chlorophenyl)-2-(3-methylpyridin-2-yl)-4,5,6,7-tetrahydrooxazolo[4,5-c]pyridine]
–	> 10000 nM	N#Cc1cc(F)cc(N2CCCc3oc(-c4cncnc4)nc3C2)c1 [Compound 206, 3-Fluoro-5-(2-(pyrimidin-5-yl)-7,8-dihydro-4H-oxazolo[4,5-c]azepin-5(6H)-yl)benzonitrile]
–	< 1000 nM	Fc1ccc(-c2nc3c(o2)CCCN(c2cc(F)cc(Cl)c2)C3)nc1 [Compound 205, 5-(3-Chloro-5-fluorophenyl)-2-(5-fluoropyridin-2-yl)-5,6,7,8-tetrahydro-4H-oxazolo[4,5-c]azepine]
–	< 1000 nM	Cc1nc(-c2nc3c(o2)CCN(c2ccccc2Cl)C3)cs1 [Compound 172, 5-(2-Chlorophenyl)-2-(2-methylthiazol-4-yl)-4,5,6,7-tetrahydrooxazolo[4,5-c]pyridine]
–	< 1000 nM	Clc1ccc(N2CCc3oc(-c4ccccn4)nc3C2)cc1 [Compound 157, 5-(4-Chlorophenyl)-2-(pyridin-2-yl)-4,5,6,7-tetrahydrooxazolo[4,5-c]pyridine]
–	< 1000 nM	Clc1ccccc1[C@@H]1CCc2oc(-c3ccccn3)nc2C1 (single isomer, unassigned) [Compound 220]
–	< 10000 nM	N#Cc1cc(F)cc(-c2nc3c(o2)CCN(c2ccccn2)C3)c1 [Compound 164, 3-Fluoro-5-(5-(pyridin-2-yl)-4,5,6,7-tetrahydrooxazolo[4,5-c]pyridin-2-yl)benzonitrile]
–	< 1000 nM	COc1ccc(F)cc1N1CCc2oc(-c3ccccn3)nc2C1 [Compound 179, 5-(5-Fluoro-2-methoxyphenyl)-2-(pyridin-2-yl)-4,5,6,7-tetrahydrooxazolo[4,5-c]pyridine]
–	< 1000 nM	FC(F)(F)c1ccccc1N1CCc2oc(-c3ccccn3)nc2C1 [Compound 182, 2-(Pyridin-2-yl)-5-(2-(trifluoromethyl)phenyl)-4,5,6,7-tetrahydrooxazolo[4,5-c]pyridine]
–	< 1000 nM	N#Cc1c(F)cccc1N1CCc2oc(-c3ccccn3)nc2C1 [Compound 189, 2-Fluoro-6-(2-(pyridin-2-yl)-6,7-dihydrooxazolo[4,5-c]pyridin-5(4H)-yl)benzonitrile]
–	< 1000 nM	c1ccc(-c2nc3c(o2)CCN(c2cccc4[nH]ccc24)C3)nc1 [Compound 194, 5-(1H-Indol-4-yl)-2-(pyridin-2-yl)-4,5,6,7-tetrahydrooxazolo[4,5-c]pyridine]
–	> 10000 nM	N#Cc1cc(F)cc(N2CCc3oc(Cc4ccccc4)nc3C2)c1 [Compound 155, 3-(2-Benzyl-6,7-dihydrooxazolo[4,5-c]pyridin-5(4H)-yl)-5-fluorobenzonitrile]
–	< 10000 nM	Clc1cccc(N2CCc3oc(-c4ccncn4)nc3C2)c1 [Compound 120, 5-(3-chlorophenyl)-2-(pyrimidin-4-yl)-4,5,6,7-tetrahydrooxazolo[4,5-c]pyridine]
–	> 10000 nM	O=C(CN1CCc2oc(-c3cccc(F)c3)nc2C1)c1ccc(F)cc1 [Compound 191, 1-(4-Fluorophenyl)-2-(2-(3-fluorophenyl)-6,7-dihydrooxazolo[4,5-c]pyridin-5(4H)-yl)ethanone]
–	< 1000 nM	Fc1cc(Cl)cc(N2CCCc3oc(-c4ccccn4)nc3C2)c1 [Compound 199, 5-(3-Chloro-5-fluorophenyl)-2-(pyridin-2-yl)-5,6,7,8-tetrahydro-4H-oxazolo[4,5-c]azepine]
–	< 1000 nM	Clc1ccccc1C1CCc2oc(-c3ccccn3)nc2C1 (racemic) [Compound 219, 5-(2-Chlorophenyl)-2-(pyridin-2-yl)-4,5,6,7-tetrahydrobenzo[d]oxazole]
–	< 1000 nM	Fc1ccc(Cl)c(N2CCc3oc(-c4ccccn4)nc3C2)c1 [Compound 175, 5-(2-Chloro-5-fluorophenyl)-2-(pyridin-2-yl)-4,5,6,7-tetrahydrooxazolo[4,5-c]pyridine]
–	< 1000 nM	N#Cc1ccc(F)cc1N1CCc2oc(-c3ccccn3)nc2C1 [Compound 176, 4-Fluoro-2-(2-(pyridin-2-yl)-6,7-dihydrooxazolo[4,5-c]pyridin-5(4H)-yl)benzonitrile]
–	< 10000 nM	c1ccc(-c2nc3c(o2)CCN(c2ncccn2)C3)nc1 [Compound 132, 2-(pyridin-2-yl)-5-(pyrimidin-2-yl)-4,5,6,7-tetrahydrooxazolo[4,5-c]pyridine]
–	< 1000 nM	c1ccc(-c2nc3c(o2)CCN(c2cccc4ccccc24)C3)nc1 [Compound 181, 5-(Naphthalen-1-yl)-2-(pyridin-2-yl)-4,5,6,7-tetrahydrooxazolo[4,5-c]pyridine]
